The values that follow are results of earlier work, collected in patent US20250222007A1, “PREPARATION OF LOW MOLECULAR WEIGHT POLYLACTIC ACID AND THE USE THEREOF” (AL Andalous for Pharmaceutical Industries, priority 2023, published 2025).

The conditions of data set [1]: dissolved in 0.1% DMSO, 20.5, 5, 10, 30, 40 micrograms.
Another data set relates to lower conjunctival sac. The note with it: 50 microliters instilled directly in the lower conjunctival sac.
For the next data set, the system named is blind human eyes. Conditions: 66% DMSO (with Tetryzoline) topically 4-8 times a day.
A further data set deals with rabbit eye. The note with it: 0.2 ml/day of 100% DMSO (4 drops/day) for 6 months.

On to `Clc1ccc(COC(Cn2ccnc2)c2ccc(Cl)cc2Cl)c(Cl)c1` (centres unmarked) [miconazole], for which the “toxicity after intravitreal injection” value in data set [1] is listed as “No toxicity was observed”.
In the case of `C[S+](C)[O-]` [DMSO, dimethyl sulfoxide], in the data set on lower conjunctival sac, the “eye irritation or conjunctival or corneal injury” value is “without any signs of eye irritation or conjunctival or corneal injury”. Moreover, in the data set with blind human eyes, the “cases with a burning sensation” value is reported as “only one case” and the “sensitivity to DMSO, epithelial damage, increase of IOP or keratitis” value is “None of any blind eyes evinced any evidence”. Also, the “adverse effect in the eye” value in the data set on rabbit eye is “without any evidence of an adverse effect”.
